Assay results reported in US20100204224A1, “AZACYCLIC COMPOUNDS AS INHIBITORS OF SENSORY NEURONE SPECIFIC SODIUM CHANNELS” (priority 2005, published 2010).
Structures can show the parent of a compound that is named as a salt. Where two headings read alike, the source gives them in different places.

Biological target: T1, human Nav1.8 (hNav1.8) ion channel (Homo sapiens, UniProt Q9Y5Y9)
T1 construct: expressed in transfected cells
Experiment: Inhibition of human Nav1.8 stably expressed in SH-SY-5Y cells (membrane potential dye fluorescence assay)
Assay type: cell-based
Settings: FLIPR membrane potential dye, 10 μM pyrethroid, 250 nM TTX, test concentration range 100 μM-0.05 μM
Method: Inhibition of Human Nav1.8 stably expressed in SH-SY-5Y Cells
A SH-SY-5Y neuroblastoma cell line stably expressing the human Nav1.8 (hNav1.8) ion channel was constructed. This cell line has been used to develop a medium to high throughput assay for determining the ability of test compounds to inhibit membrane depolarisation mediated via the hNav1.8 channel.
SH-SY-5Y hNav1.8 are grown in adherent monolayer culture using 50:50 Ham's F-12/EMEM tissue culture medium supplemented with 15% (v/v) foetal bovine serum; 2 mM L-glutamine, 1% NEAR and 600 μg·ml^−1 Geneticin sulphate. Cells are removed from the tissue culture flask using trypsin/EDTA and re-plated into black walled, clear bottom 96-well assay plates at 50,000 cells·well^−1 24 hours prior to assay.
On the day of assay the cell assay plates are washed to remove cell culture medium using a sodium free assay buffer (145 mM tetramethyl ammonium chloride; 2 mM calcium chloride; 0.8 mM magnesium chloride hexahydrate; 10 mM HEPES; 10 mM glucose; 5 mM potassium chloride, pH 7.4). Fluorescent membrane potential dye solution (FLIPR™ membrane potential dye, Molecular Devices Corporation), containing 10 μM of a pyrethroid to prevent channel inactivation and 250 nM tetrodotoxin (TTX) to reduce interference from TTX-sensitive sodium channels present in the cell line. Test compound, initially dissolved in dimethyl sulfoxide but further diluted in sodium free buffer, is added to achieve the final test concentration range of 100 μM-0.05 μM.
Cell plates are incubated for 30 minutes at room temperature to allow equilibration of dye and test compound. Plates are then transferred to a fluorescence plate reader for fluorescence measurement using an excitation wavelength of 530 nm whilst measuring fluorescence emission at 565 nm. Baseline fluorescence levels are first determined before the addition of a sodium containing buffer (220 mM sodium chloride; 2 mM calcium chloride; 0.8 mM magnesium chloride hexahydrate; 10 mM HEPES; 10 mM glucose; 5 mM potassium chloride. pH 7.4) to cause membrane depolarisation in those cells where channel block has not been effected (final sodium concentration=72.5 mM). Membrane depolarisation is registered by an increase in fluorescence emission at 565 nm.
The change in fluorescence seen in each test well upon the addition of sodium containing buffer is calculated relative to the baseline fluorescence for that well. This figure is then used for calculating the IC50 for each test compound.

[1] = SH-SY-5Y hNav1.8 cells, read-out: hNav1.8 IC50
[2] = hNav1.8 IC50, SH-SY-5Y hNav1.8 cells

T1 sequence (Q9Y5Y9 whole entry): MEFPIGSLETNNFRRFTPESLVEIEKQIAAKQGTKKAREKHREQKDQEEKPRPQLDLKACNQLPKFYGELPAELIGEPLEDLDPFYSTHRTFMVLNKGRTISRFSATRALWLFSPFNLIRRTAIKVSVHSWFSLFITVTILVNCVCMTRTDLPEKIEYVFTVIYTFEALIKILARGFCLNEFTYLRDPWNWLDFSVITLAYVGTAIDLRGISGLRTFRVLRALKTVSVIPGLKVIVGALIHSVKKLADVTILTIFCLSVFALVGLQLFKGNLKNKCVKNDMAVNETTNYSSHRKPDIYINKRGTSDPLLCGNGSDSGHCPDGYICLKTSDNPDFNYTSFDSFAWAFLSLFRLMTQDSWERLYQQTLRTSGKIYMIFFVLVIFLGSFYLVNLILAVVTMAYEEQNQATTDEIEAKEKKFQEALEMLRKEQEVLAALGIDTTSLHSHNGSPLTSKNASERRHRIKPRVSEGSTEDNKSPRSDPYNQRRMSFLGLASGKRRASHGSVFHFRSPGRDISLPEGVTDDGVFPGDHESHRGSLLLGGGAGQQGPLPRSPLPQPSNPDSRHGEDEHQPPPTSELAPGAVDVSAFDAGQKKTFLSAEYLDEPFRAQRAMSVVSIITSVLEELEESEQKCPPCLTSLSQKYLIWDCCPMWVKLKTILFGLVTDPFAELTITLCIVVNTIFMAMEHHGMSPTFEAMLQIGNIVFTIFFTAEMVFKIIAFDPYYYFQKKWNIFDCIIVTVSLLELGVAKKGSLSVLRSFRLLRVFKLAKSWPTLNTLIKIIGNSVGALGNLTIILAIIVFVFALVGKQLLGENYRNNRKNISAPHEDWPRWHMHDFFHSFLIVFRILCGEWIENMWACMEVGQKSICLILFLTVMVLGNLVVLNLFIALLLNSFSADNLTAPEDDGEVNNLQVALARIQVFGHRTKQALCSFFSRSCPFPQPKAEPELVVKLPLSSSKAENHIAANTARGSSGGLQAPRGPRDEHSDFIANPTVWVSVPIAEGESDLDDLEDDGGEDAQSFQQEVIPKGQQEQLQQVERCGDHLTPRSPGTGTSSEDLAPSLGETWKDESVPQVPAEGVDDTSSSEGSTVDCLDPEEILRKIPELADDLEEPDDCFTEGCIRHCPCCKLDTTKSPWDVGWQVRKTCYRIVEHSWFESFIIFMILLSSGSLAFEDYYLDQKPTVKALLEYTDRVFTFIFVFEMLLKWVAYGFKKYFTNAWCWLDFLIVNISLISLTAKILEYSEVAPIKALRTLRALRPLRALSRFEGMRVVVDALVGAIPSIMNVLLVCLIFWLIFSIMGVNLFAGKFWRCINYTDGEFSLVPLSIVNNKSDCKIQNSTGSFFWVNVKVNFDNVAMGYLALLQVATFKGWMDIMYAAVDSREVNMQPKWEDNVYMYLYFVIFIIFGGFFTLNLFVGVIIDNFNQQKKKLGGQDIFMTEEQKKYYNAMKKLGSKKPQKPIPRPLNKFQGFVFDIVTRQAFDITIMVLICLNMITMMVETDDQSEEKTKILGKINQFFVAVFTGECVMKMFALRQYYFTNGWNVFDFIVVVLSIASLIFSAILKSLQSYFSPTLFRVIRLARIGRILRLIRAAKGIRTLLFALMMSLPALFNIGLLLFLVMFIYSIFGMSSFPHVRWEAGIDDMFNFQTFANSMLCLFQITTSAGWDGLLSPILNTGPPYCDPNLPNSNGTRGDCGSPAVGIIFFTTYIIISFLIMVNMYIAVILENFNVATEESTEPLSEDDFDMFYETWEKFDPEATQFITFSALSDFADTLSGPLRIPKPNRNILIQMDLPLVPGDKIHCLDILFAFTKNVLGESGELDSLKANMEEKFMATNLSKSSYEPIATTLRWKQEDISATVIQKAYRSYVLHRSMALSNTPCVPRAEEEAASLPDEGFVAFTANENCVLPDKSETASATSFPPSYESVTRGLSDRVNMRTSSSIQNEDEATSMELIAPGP

| SMILES | IC50 [1] | IC50 [2] |
| --- | --- | --- |
| O=C(Nc1ccc(C(F)(F)F)cc1)N1CC2CC1CN2C1Cc2ccccc2C1 (stereo not shown) [Example 99, 5-Indan-2-yl-2,5-diaza-bicyclo[2.2.1]heptane-2-carboxylic acid (4-trifluoromethyl-phenyl)-amide] | 2.38 µM | – |
| CC(Cc1ccc(Cl)cc1Cl)N1CC2CC1CN2C(=O)Nc1ccc(C(F)(F)F)cc1 (stereo not shown) [Example 84, 5-[2-(2,4-Dichloro-phenyl)-1-methyl-ethyl]-2,5-diaza-bicyclo[2.2.1]heptane-2-carboxylic acid (4-trifluoromethyl-phenyl)-amide] | 1.06 µM | – |
| CC(c1ccccc1Cl)N1CC2CC1CN2C(=O)Nc1ccc(Oc2ccc(F)cc2)cc1 (stereo not shown) [Example 96, 5-[1-(2-Chloro-phenyl)-ethyl]-2,5-diaza-bicyclo[2.2.1]heptane-2-carboxylic acid [4-(4-fluoro-phenoxy)-phenyl]-amide methanesulfonate salt] | 0.37 µM | – |
| Cc1ccsc1C(C)N1CC2CC1CN2C(=O)Nc1ccc(Oc2ccccc2)cc1 (stereo not shown) [Example 14, 5-[1-(3-Methyl-thiophen-2-yl)-ethyl]-2,5-diaza-bicyclo[2.2.1]heptane-2-carboxylic acid (4-phenoxy-phenyl)-amide] | 0.9 µM | – |
| O=C(NCc1ccc(Oc2ccccc2)cc1)N1CC2CC1CN2C1Cc2ccc(F)cc2C1 (stereo not shown) [Example 145, 5-(5-Fluoro-indan-2-yl)-2,5-diaza-bicyclo[2.2.1]heptane-2-carboxylic acid 4-phenoxy-benzylamide] | 1.44 µM | – |
| O=C(Nc1ccc(Oc2ccc(F)cc2)cc1)N1CCC2(CCN(Cc3ccccc3)C2)C1 (stereo not shown) [Example 103, 7-Benzyl-2,7-diaza-spiro[4.4]nonane-2-carboxylic acid [4-(4-fluoro-phenoxy)-phenyl]-amide] | 0.39 µM | – |
| CC(c1c(F)cccc1F)N1CC2CC1CN2C(=O)Nc1ccc(C(F)(F)F)cc1 (stereo not shown) [Example 13, 5-[1-(2,6-Difluoro-phenyl)-ethyl]-2,5-diaza-bicyclo[2.2.1]heptane-2-carboxylic acid (4-trifluoromethyl-phenyl)-amide] | 6.36 µM | – |
| CC(c1ccc(C#N)cc1)N1CC2CC1CN2C(=O)Nc1ccc(Oc2ccc(F)cc2)cc1 (stereo not shown) [Example 91, 5-[1-(4-Cyano-phenyl)-ethyl]-2,5-diaza-bicyclo[2.2.1]heptane-2-carboxylic acid [4-(4-fluoro-phenoxy)-phenyl]-amide] | 1.05 µM | – |
| CC(c1ccc(F)cc1)N1CC2CC1CN2C(=O)Nc1cccc(C(F)(F)F)c1 (stereo not shown) [Example 47, 5-[1-(4-Fluoro-phenyl)-ethyl]-2,5-diaza-bicyclo[2.2.1]heptane-2-carboxylic acid (3-trifluoromethyl-phenyl)-amide] | 2.61 µM | – |
| CC(c1ccccc1Cl)N1CC2CC1CN2C(=O)Nc1ccc(Oc2ccc(F)cc2)c(F)c1 (stereo not shown) [Example 110, 5-[1-(2-Chloro-phenyl)-ethyl]-2,5-diaza-bicyclo[2.2.1]heptane-2-carboxylic acid [3-fluoro-4-(4-fluoro-phenoxy)-phenyl]-amide] | 0.21 µM | – |
| CC(c1ccccc1C(F)(F)F)N1CC2CC1CN2C(=O)Nc1cccc(C(F)(F)F)c1 (stereo not shown) [Example 57, 5-[1-(2-Trifluoromethyl-phenyl)-ethyl]-2,5-diaza-bicyclo[2.2.1]heptane-2-carboxylic acid (3-trifluoromethyl-phenyl)-amide] | 5.13 µM | – |
| CC(c1ccccc1Br)N1CC2CC1CN2C(=O)c1ccc(Oc2ccccc2)cc1 (stereo not shown) [Example 159, {5-[1-(2-Bromo-phenyl)-ethyl]-2,5-diaza-bicyclo[2.2.1]hept-2-yl}-(4-phenoxy-phenyl)-methanone] | 14.8 µM | – |
| CC(c1ccc(Cl)cc1Cl)N1CC2CC1CN2C(=O)Nc1ccc(C(F)(F)F)cc1 (stereo not shown) [Example 120, 5-[1-(2,4-Dichloro-phenyl)-ethyl]-2,5-diaza-bicyclo[2.2.1]heptane-2-carboxylic acid (4-trifluoromethyl-phenyl)-amide] | 24.5 µM | – |
| O=C(Cc1ccc(Oc2ccc(F)cc2)cc1)N1CC2CC1CN2C1CCc2cc(F)ccc2C1 (stereo not shown) [Example 144, 2-[4-(4-Fluoro-phenoxy)-phenyl]-1-[5-(6-fluoro-1,2,3,4-tetrahydro-naphthalen-2-yl)-2,5-diaza-bicyclo[2.2.1]hept-2-yl]-ethanone] | – | 1.6 µM |
| CC(c1ccccc1C(F)(F)F)N1CC2CC1CN2C(=O)Nc1cccc(C(F)(F)F)c1 (stereo not shown) [Example 55, 5-[1-(2-Trifluoromethyl-phenyl)-ethyl]-2,5-diaza-bicyclo[2.2.1]heptane-2-carboxylic acid (3-trifluoromethyl-phenyl)-amide] | 4.24 µM | – |
| CC(c1ccccc1Cl)N1CC2CC1CN2C(=O)Cc1ccc(Oc2ccc(F)cc2)cc1 (stereo not shown) [Example 136, 1-{5-[1-(2-Chloro-phenyl)-ethyl]-2,5-diaza-bicyclo[2.2.1]hept-2-yl}-2-[4-(4-fluoro-phenoxy)-phenyl]-ethanone] | – | 2.41 µM |
| C=CCOc1ccc(NC(=O)N2CC3CC2CN3C(C)c2ccccc2C)cc1 (stereo not shown) [Example 20, 5-(1-o-Tolyl-ethyl)-2,5-diaza-bicyclo[2.2.1]heptane-2-carboxylic acid (4-allyloxy-phenyl)-amide] | 3.42 µM | – |
| Cc1ccc(Oc2ccc(NC(=O)N3CC4CC3CN4C(C)c3ccc(Cl)cc3Cl)cc2)cc1 (stereo not shown) [Example 123, 5-[1-(2,4-Dichloro-phenyl)-ethyl]-2,5-diaza-bicyclo[2.2.1]heptane-2-carboxylic acid (4-p-tolyloxy-phenyl)-amide] | 20.8 µM | – |
| Cc1ccccc1C(C)N1CC2CC1CN2C(=O)Cc1ccc(Oc2cccc(F)c2)cc1 (stereo not shown) [Example 172, 2-[4-(3-Fluoro-phenoxy)-phenyl]-1-[5-(1-o-tolyl-ethyl)-2,5-diaza-bicyclo[2.2.1]hept-2-yl]-ethanone] | – | 0.71 µM |
| CC(c1ccc(F)cc1)N1CC2CC1CN2C(=O)Nc1ccc(Oc2ccccc2)cc1 (stereo not shown) [Example 48, 5-[1-(4-Fluoro-phenyl)-ethyl]-2,5-diaza-bicyclo[2.2.1]heptane-2-carboxylic acid (4-phenoxy-phenyl)-amide] | 0.42 µM | – |
| Cc1ccccc1C(C)N1CC2CC1CN2C(=O)Nc1ccc(Cc2ccccc2)cc1 (stereo not shown) [Example 35, 5-(1-o-Tolyl-ethyl)-2,5-diaza-bicyclo[2.2.1]heptane-2-carboxylic acid (4-benzyl-phenyl)-amide] | 0.59 µM | – |
| CC(c1ccccc1Cl)N1CC2CC1CN2C(=O)Cc1ccc(Oc2cccc(F)c2)cc1 (stereo not shown) [Example 170, 1-{5-[1-(2-Chloro-phenyl)-ethyl]-2,5-diaza-bicyclo[2.2.1]hept-2-yl}-2-[4-(3-fluoro-phenoxy)-phenyl]-ethanone] | – | 1.57 µM |
| CCCCOc1ccc(NC(=O)N2CC3CC2CN3Cc2sccc2C)cc1 (stereo not shown) [Example 3, 5-(3-Methyl-thiophen-2-ylmethyl)-2,5-diaza-bicyclo[2.2.1]heptane-2-carboxylic acid (4-butoxy-phenyl)-amide] | 1.03 µM | – |
| Cc1ccccc1C(C)N1CC2CC1CN2C(=O)Nc1ccc(Oc2ccc(F)cc2)cc1 (single isomer, unassigned) [Example 29, 5-(1-o-Tolyl-ethyl)-2,5-diaza-bicyclo[2.2.1]heptane-2-carboxylic acid [4-(4-fluoro-phenoxy)-phenyl]-amide] | – | 0.34 µM |
| O=C(Nc1ccc(Oc2ccc(F)cc2)cc1)N1CC2CC1CN2C1CCc2cc(F)ccc21 (stereo not shown) [Example 93, 5-(5-Fluoro-indan-1-yl)-2,5-diaza-bicyclo[2.2.1]heptane-2-carboxylic acid [4-(4-fluoro-phenoxy)-phenyl]-amide] | 0.31 µM | – |
| CC(c1ccccc1Cl)N1CC2CC1CN2C(=O)Nc1ccc(Oc2ccc(Cl)cc2)cc1 (stereo not shown) [Example 128, 5-[1-(2-Chloro-phenyl)-ethyl]-2,5-diaza-bicyclo[2.2.1]heptane-2-carboxylic acid [4-(4-chloro-phenoxy)-phenyl]-amide] | 1.42 µM | – |
| Cc1ccccc1C(C)N1CC2CC1CN2C(=O)Nc1ccc(OCCN2CCOCC2)cc1 (stereo not shown) [Example 44, 5-(1-o-Tolyl-ethyl)-2,5-diaza-bicyclo[2.2.1]heptane-2-carboxylic acid [4-(2-morpholin-4-yl-ethoxy)-phenyl]-amide] | 26.8 µM | – |
| O=C(Nc1ccc(C(F)(F)F)cc1)N1CC2CC1CN2C1CCc2cc(F)ccc21 (stereo not shown) [Example 95, 5-(5-Fluoro-indan-1-yl)-2,5-diaza-bicyclo[2.2.1]heptane-2-carboxylic acid (4-trifluoromethyl-phenyl)-amide] | 1.06 µM | – |
